Assay results reported in patent publication US12409206B2, “Use of cyclosporine analogues for treating fibrosis” (Hepion Pharmaceuticals, Inc., priority 2020, dated 2025).

Experiments:
Assay type in all cases: cell-based
[1] = tested on: human precision cut liver slices (PCLS); test: PCLS biomarker secretion (ELISA); settings: CRV431 applied at 5 μM; markers MCP-1, IL-6, TIMP1, hyaluronic acid, fibronectin, collagen 1α1
Experimental: (§1) PCLS were obtained from 5 human donors who underwent resection of liver cancer. Replicate slices were collected from healthy margins of the resections and cultured for 4 or 6 days depending on the experimental protocol. In the Nonstimulation Protocol slices were cultured for 6 days and treated for the entire period with DMSO vehicle or 5 μM CRV431. In the Stimulation Protocol slices were rested for 1 day and then administered the cytokines, TGFβ and PDGF-BB, for 3 days to stimulate inflammation and fibrosis. DMSO vehicle, CRV431 (1 and 5 μM), Alk5i (10 μM), obeticholic acid (5 μM), elafibranor (5 μM), resmetirom ([…]), and Aramchol (5 μM) were administered individually as drug treatments in the Stimulation Protocol concurrent with TGFβ+PDGF-BB. Culture medium treatments were replaced daily.
(§2) Four types of evaluations were conducted on the PCLS: (a) secretion of inflammation and fibrosis biomarkers into the culture medium, (b) histological staining and quantitation of Sirius red as a measure of tissue fibrosis, (c) gene expression of inflammation and fibrosis biomarkers by RT-PCR, and (d) RNA sequencing (RNA-Seq) of the complete transcriptome. Each of the four types of evaluation is described below: • (a) Biomarker secretion. Spent culture medium was collected daily from duplicate slices for each treatment. ELISAs were used to quantify secretion of monocyte chemoattractant protein (MCP-1), interleukin-6 (IL-6), tissue inhibitor of metalloproteinase-1 (TIMP1), hyaluronic acid, fibronectin, and collagen 1α1. For each donor the mean level of biomarker secretion in each treatment group was expressed as a percentage change relative to DMSO vehicle, the percentages averaged for all donors, and finally the mean daily percentage change calculated from all days of evaluation. […] Sirius red was quantified morphometrically in the histological sections as the percentage area with Sirius red staining in 10 sections from each treatment. In the Nonstimulation Protocol the quantity of Sirius red staining was expressed relative to the vehicle group. In the Stimulation Protocol the quantity of Sirius red staining was expressed relative to nonstimulated PCLS (0%) and TGFβ+PDGF-BB-stimulated+vehicle PCLS (100%). […] RNA was isolated from duplicate liver slices per treatment at the end of the experiments and evaluated by RT-PCR for 5 markers of inflammation and fibrosis: MCP-1, IL-6, TIMP1, αSMA, and collagen 1α1. β actin was used as a reference gene to calculate relative levels of each target gene RNA. […] RNA sequencing of the complete transcriptome (30 million reads per sample) was conducted on vehicle and 5 μM CRV431 treatment groups from 3 donors both from the Nonstimulation and Stimulation Protocols. […]

[2] = tested on: human precision cut liver slices (PCLS); test: PCLS gene expression by RT-PCR; settings: CRV431 applied at 5 μM; markers MCP-1, IL-6, TIMP1, αSMA, collagen 1α1
Experimental: as §1, §2

[3] = tested on: human precision cut IPF lung slices; test: Gene expression (RT-PCR) in precision cut IPF lung slices in culture; settings: CRV431 applied at 5 μM; Day 6 of culture after 4 days of treatment; β actin reference
Experimental: (§3) This example describes a study conducted with precision cut lung slices. Precision cut slices from explanted lung tissue from a patient with biopsy-confirmed, idiopathic pulmonary fibrosis (IPF) were cultured for 6 days. Treatments were applied to 6 replicate slices per treatment on Day 2 of culture and replaced daily on Days 3, 4, and 5 of culture.
For generating the results of gene expression shown in FIG. 6B, RNA was isolated from 6 pooled lung slices per treatment on Day 6 of culture following 4 days of drug or vehicle treatment and evaluated by reverse transcription-polymerase chain reaction (RT-PCR) for 6 markers of inflammation and fibrosis: MCP-1, IL-6, TGFβ TIMP1, collagen 1α1, and α-smooth muscle actin (αSMA). β actin was used as a reference gene to calculate relative levels of each target gene RNA.

[4] = tested on: human precision cut IPF lung slices; test: Secreted markers (ELISA) in precision cut IPF lung slices in culture; settings: CRV431 applied at 5 μM; 4 daily treatment intervals; relative to DMSO vehicle
Experimental: as §3
For generating the results of secreted marker (% daily average change) shown in FIG. 6A, spent medium (24-hr intervals) was collected on Days 3, 4, 5, and 6 to measure secretion by ELISA of six markers of inflammation and fibrosis: monocyte chemoattractant protein (MCP-1), interleukin-6 (IL-6), matrix metalloproteinase-7 (MMP-7), tissue inhibitor of metalloproteinase-1 (TIMP1), hyaluronic acid, and collagen 1α1. The mean level of secretion from 6 replicate slices for each drug treatment was expressed as a percentage change relative to DMSO vehicle treatment for each day of treatment, and then the mean percentage change from 4 daily treatment intervals was calculated.

COC(=O)c1ccc2c(c1)NC(=O)/C2=C(\Nc1ccc(N(C)C(=O)CN2CCN(C)CC2)cc1)c1ccccc1 [nintedanib, reference compound]
decreased: mean daily secretion of all markers [1] | gene expression of all markers [2] | gene expression of all markers (MCP-1, IL-6, TGFβ, TIMP1, collagen 1α1, αSMA) [3] | mean daily secretion of all markers (MCP-1, IL-6, MMP-7, TIMP1, hyaluronic acid, collagen 1α1) [4]

Cc1ccc(=O)n(-c2ccccc2)c1 [pirfenidone, reference compound]
decreased: mean daily secretion of all markers [1] | gene expression of all markers [2] | gene expression of all markers (MCP-1, IL-6, TGFβ, TIMP1, collagen 1α1, αSMA) [3] | mean daily secretion of all markers (MCP-1, IL-6, MMP-7, TIMP1, hyaluronic acid, collagen 1α1) [4]
